pIC50: −log10 of the molar value.
These molecules were tested on JAK1-dependent STAT6 phosphorylation downstream of IL-13 stimulation in TF-1 human erythroleukemia cells (assay: cells). Conditions: TF-1, read-out: IL-13-pSTAT6 IC50.

pIC50 | SMILES
6.87 | NCC12CC(CN1C(=O)c1ccc(Nc3nc4c(C5=CCN(C(=O)CCC(F)(F)F)CC5)cccn4n3)cc1)C2 [Example 2-452, 1-[4-[2-[4-[4-(aminomethyl)-3-azabicyclo[2.1.1]hexane-3-carbonyl]anilino]-[1,2,4]triazolo[1,5-a]pyridin-8-yl]-3,6-dihydro-2H-pyridin-1-yl]-4,4,4-trifluoro-butan-1-one]
8.02 | O=C(CCC(F)(F)F)N1CC=C(c2cccn3nc(Nc4ccc(C(=O)N5CCCCC5c5cccnc5)cc4)nc23)CC1 (stereo not shown) [Example 2-280, 4,4,4-trifluoro-1-[4-[2-[4-[2-(3-pyridyl)piperidine-1-carbonyl]anilino]-[1,2,4]triazolo[1,5-a]pyridin-8-yl]-3,6-dihydro-2H-pyridin-1-yl]butan-1-one]
7.25 | CNC(=O)CC1(c2ccc(Cl)cc2)CCN(c2cccn3nc(Nc4ccc(C(=O)N(C)C5CCN(C)CC5)cc4)nc23)CC1 [Example 1-299, 4-[[8-[4-(4-chlorophenyl)-4-[2-(methylamino)-2-oxo-ethyl]-1-piperidyl]-[1,2,4]triazolo[1,5-a]pyridin-2-yl]amino]-N-methyl-N-(1-methyl-4-piperidyl)benzamide]
7.49 | CCOC(=O)N1CC=C(c2cccn3nc(Nc4ccc(C(=O)NCc5cncc(C)c5)cc4)nc23)CC1 [Example 2-178, ethyl 4-[2-[4-[(5-methyl-3-pyridyl)methylcarbamoyl]anilino]-[1,2,4]triazolo[1,5-a]pyridin-8-yl]-3,6-dihydro-2H-pyridine-1-carboxylate]
6.56 | NCC1CCN(C(=O)c2ccc(Nc3nc4c(C5=CCN(C(=O)CCC(F)(F)F)CC5)cccn4n3)cc2)C1 (stereo not shown) [Example 2-447, 1-[4-[2-[4-[3-(aminomethyl)pyrrolidine-1-carbonyl]anilino]-[1,2,4]triazolo[1,5-a]pyridin-8-yl]-3,6-dihydro-2H-pyridin-1-yl]-4,4,4-trifluoro-butan-1-one]
7.26 | O=C(CCC(F)(F)F)N1CC=C(c2cccn3nc(Nc4ccc(C(=O)N5CCC6(CCCN6)C5)cc4)nc23)CC1 (stereo not shown) [Example 2-377, 1-[4-[2-[4-(1,7-diazaspiro[4.4]nonane-7-carbonyl)anilino]-[1,2,4]triazolo[1,5-a]pyridin-8-yl]-3,6-dihydro-2H-pyridin-1-yl]-4,4,4-trifluoro-butan-1-one]
8.24 | O=C(CCC(F)(F)F)N1CC=C(c2cccn3nc(Nc4ccc(C(=O)N5CCN6CCCCC6C5)cc4)nc23)CC1 (stereo not shown) [Example 2-151, 1-[4-[2-[4-(1,3,4,6,7,8,9,9a-octahydropyrido[1,2-a]pyrazine-2-carbonyl)anilino]-[1,2,4]triazolo[1,5-a]pyridin-8-yl]-3,6-dihydro-2H-pyridin-1-yl]-4,4,4-trifluoro-butan-1-one]
6.27 | O=C(NCCN1CCNCC1)c1ccc(Nc2nc3c(C4=CCN(C(=O)CCC(F)(F)F)CC4)cccn3n2)cc1 [Example 2-32, N-(2-piperazin-1-ylethyl)-4-[[8-[1-(4,4,4-trifluorobutanoyl)-3,6-dihydro-2H-pyridin-4-yl]-[1,2,4]triazolo[1,5-a]pyridin-2-yl]amino]benzamide]
7.52 | COCCN(C(=O)c1ccc(Nc2nc3c(C4=CCN(C(=O)CCC(F)(F)F)CC4)cccn3n2)cc1)C1CCN(C)CC1 [Example 2-209, N-(2-methoxyethyl)-N-(1-methyl-4-piperidyl)-4-[[8-[1-(4,4,4-trifluorobutanoyl)-3,6-dihydro-2H-pyridin-4-yl]-[1,2,4]triazolo[1,5-a]pyridin-2-yl]amino]benzamide]
7.20 | O=C(CCC(F)(F)F)N1CC=C(c2cccn3nc(Nc4ccc(C(=O)N5CCC6(CCCNC6)CC5)cc4)nc23)CC1 [Example 2-191, 1-[4-[2-[4-(2,9-diazaspiro[5.5]undecane-9-carbonyl)anilino]-[1,2,4]triazolo[1,5-a]pyridin-8-yl]-3,6-dihydro-2H-pyridin-1-yl]-4,4,4-trifluoro-butan-1-one]
6.64 | CCOC(=O)N1CC=C(c2cccn3nc(Nc4ccc(C(=O)NCCC5CCCN5)cc4)nc23)CC1 (stereo not shown) [Example 2-362, ethyl 4-[2-[4-(2-pyrrolidin-2-ylethylcarbamoyl)anilino]-[1,2,4]triazolo[1,5-a]pyridin-8-yl]-3,6-dihydro-2H-pyridine-1-carboxylate]
7.01 | CN1CCN(C(=O)C2COCCN2C(=O)c2ccc(Nc3nc4c(C5=CCN(C(=O)CCC(F)(F)F)CC5)cccn4n3)cc2)CC1 (stereo not shown) [Example 2-262, 4,4,4-trifluoro-1-[4-[2-[4-[3-(4-methylpiperazine-1-carbonyl)morpholine-4-carbonyl]anilino]-[1,2,4]triazolo[1,5-a]pyridin-8-yl]-3,6-dihydro-2H-pyridin-1-yl]butane-1-one]
7.92 | CCOC(=O)N1CC=C(c2cccn3nc(Nc4ccc(C(=O)NCCc5ccncc5)cc4)nc23)CC1 [Example 2-172, ethyl 4-[2-[4-[2-(4-pyridyl)ethylcarbamoyl]anilino]-[1,2,4]triazolo[1,5-a]pyridin-8-yl]-3,6-dihydro-2H-pyridine-1-carboxylate]
7.87 | CC(C)N1CCC(N(C)C(=O)c2ccc(Nc3nc4c(C5=CCN(C(=O)CCC(F)(F)F)CC5)cccn4n3)cc2)CC1 [Example 2-330, N-(1-isopropyl-4-piperidyl)-N-methyl-4-[[8-[1-(4,4,4-trifluorobutanoyl)-3,6-dihydro-2H-pyridin-4-yl]-[1,2,4]triazolo[1,5-a]pyridin-2-yl]amino]benzamide]
7.42 | O=C(CCC(F)(F)F)N1CC=C(c2cccn3nc(Nc4ccc(C(=O)N5CCNCC5)cc4)nc23)CC1 [Example 2-318, 4,4,4-trifluoro-1-[4-[2-[4-(piperazine-1-carbonyl)anilino]-[1,2,4]triazolo[1,5-a]pyridin-8-yl]-3,6-dihydro-2H-pyridin-1-yl]butan-1-one]
7.38 | CCOC(=O)N1CC=C(c2cccn3nc(Nc4ccc(C(=O)N5CCC(c6ccccn6)CC5)cc4)nc23)CC1 [Example 2-358, ethyl 4-[2-[4-[4-(2-pyridyl)piperidine-1-carbonyl]anilino]-[1,2,4]triazolo[1,5-a]pyridin-8-yl]-3,6-dihydro-2H-pyridine-1-carboxylate]
6.19 | O=C(CCC(F)(F)F)N1CC=C(c2cccn3nc(Nc4ccc(C(=O)N5CCC6(CCNCC6)C5)cc4)nc23)CC1 [Example 2-187, 1-[4-[2-[4-(2,8-diazaspiro[4.5]decane-2-carbonyl)anilino]-[1,2,4]triazolo[1,5-a]pyridin-8-yl]-3,6-dihydro-2H-pyridin-1-yl]-4,4,4-trifluoro-butan-1-one]
7.16 | CCOC(=O)N1CC=C(c2cccn3nc(Nc4ccc(C(=O)NCC5CCCCN5)cc4)nc23)CC1 (stereo not shown) [Example 2-114, ethyl 4-[2-[4-(2-piperidylmethylcarbamoyl)anilino]-[1,2,4]triazolo[1,5-a]pyridin-8-yl]-3,6-dihydro-2H-pyridine-1-carboxylate]
6.34 | O=C(NC1CCNCC1)c1ccc(Nc2nc3c(C4=CCN(C(=O)CCC(F)(F)F)CC4)cccn3n2)cc1 [Example 2-445, N-(4-piperidyl)-4-[[8-[1-(4,4,4-trifluorobutanoyl)-3,6-dihydro-2H-pyridin-4-yl]-[1,2,4]triazolo[1,5-a]pyridin-2-yl]amino]benzamide]

From patent US9873709B2 (priority 2013, dated 2018)
